Patent US20260191838A1, “COMBINATIONS COMPRISING A MENIN-MLL INHIBITOR AND A BCL-2 INHIBITOR” (JANSSEN PHARMACEUTICA NV, priority 2022, published 2026)

Tested on: OCI-AML3 cells
Assay: In vitro proliferation (Cell Titer Glo), Compound 51 with decitabine and venetoclax, OCI-AML3
Assay type: cell-based, human
Design: Effect size (BIGL, HSA null model): scale not given here
Protocol: 3a) In Vitro Proliferation—Menin-MLL Inhibitor in Combination with a DNA Hypomethylating Agent (Decitabine) and a BCL2 Inhibitor (Venetoclax)
The effect of Compound 51 in combination with decitabine and venetoclax was determined in proliferation assays.
AML cell lines MOLM-13, OCI-AML3 and MV4-11 were purchased from DSMZ. MOLM-13 were grown in RPMI medium supplemented with 10% Fetal Bovine Serum (FBS) and 1% penicillin/streptomycin. MV4-11 cells were grown in IMDM medium supplemented with 10% FBS and 1% penicillin/streptomycin. OCI-AML3 cells were cultured in 80-90% alpha-MEM (without ribo- and deoxyribonucleosides)+10-20% FBS. All cell lines were cultured at 37° C. in 5% CO2 atmosphere.
AML cell lines (10×10^3 cells/well) were seeded in 96-well plates and grown for 6 days in serum (10%)-containing medium in the presence or absence of inhibitors at the indicated concentrations. Proliferation was analyzed by means of a Cell Titer Glo assay using the CellTiter 96 Aqueous One Solution Cell Proliferation Assay (Promega, Madison, WI, USA), according to the manufacturer's instructions. Data are mean with standard deviation from two to four independent experiments in technical triplicates.
R-based Biochemically Intuitive Generalized Loewe (BIGL) model implemented with a highest single agent (HSA) null model. Specifically, the BIGL methodology was applied to calculate drug-drug interactions (Van der Borght, K., Tourny, A., Bagdziunas, R. et al. BIGL: Biochemically Intuitive Generalized Loewe null model for prediction of the expected combined effect compatible with partial agonism and antagonism. Sci Rep 7, 17935 (2017); Thas, O., Tourny, A., Verbist, B., Hawinkel, S., Nazarov, M., Mutambanengwe, K., & Bijnens, L. Statistical detection of synergy: new methods and a comparative study. Pharmaceutical Statistics (2021)).
Synergy matrix results of the BIGL analysis of the cell line data with HSA as mean model calculated on the basis of the cellular metabolic activity using Cell Titer-Glo assay. Bootstrap confidence intervals are indicated. Effect sizes and their confidence intervals are shown. […] No significant average effect if zero is included in the interval.

CC(=O)N1CCC(CN2CC[C@@H](Cc3cn(-c4ccc(F)cc4C(=O)N(C)C(C)C)c4cncc(C)c34)C2)CC1 [Compound 51]
Effect size (BIGL, HSA null model) (Compound 51 0.001 μM, Decitabine 0.0015 μM, Venetoclax 0.0001 μM): −0.03 | Effect size (BIGL, HSA null model) (Compound 51 0.001 μM, Decitabine 0.015 μM, Venetoclax 0.001 μM): −0.1 | Effect size (BIGL, HSA null model) (Compound 51 0.001 μM, Decitabine 0.15 μM, Venetoclax 0.002 μM): −0.05 | Effect size (BIGL, HSA null model) (Compound 51 0.001 μM, Decitabine 1.5 μM, Venetoclax 0.02 μM): 0 | Effect size (BIGL, HSA null model) (Compound 51 0.001 μM, Decitabine 3 μM, Venetoclax 0.2 μM): 0 | Effect size (BIGL, HSA null model) (Compound 51 0.01 μM, Decitabine 0.0015 μM, Venetoclax 0.0001 μM): −0.01 | Effect size (BIGL, HSA null model) (Compound 51 0.01 μM, Decitabine 0.015 μM, Venetoclax 0.001 μM): −0.31 | Effect size (BIGL, HSA null model) (Compound 51 0.01 μM, Decitabine 0.15 μM, Venetoclax 0.002 μM): −0.06 | Effect size (BIGL, HSA null model) (Compound 51 0.01 μM, Decitabine 1.5 μM, Venetoclax 0.02 μM): −0.01 | Effect size (BIGL, HSA null model) (Compound 51 0.01 μM, Decitabine 3 μM, Venetoclax 0.2 μM): 0 | Effect size (BIGL, HSA null model) (Compound 51 0.05 μM, Decitabine 0.0015 μM, Venetoclax 0.0001 μM): 0.02 | Effect size (BIGL, HSA null model) (Compound 51 0.05 μM, Decitabine 0.015 μM, Venetoclax 0.001 μM): 0.01 | Effect size (BIGL, HSA null model) (Compound 51 0.05 μM, Decitabine 0.15 μM, Venetoclax 0.002 μM): −0.09 | Effect size (BIGL, HSA null model) (Compound 51 0.05 μM, Decitabine 1.5 μM, Venetoclax 0.02 μM): −0.01 | Effect size (BIGL, HSA null model) (Compound 51 0.05 μM, Decitabine 3 μM, Venetoclax 0.2 μM): 0 | Effect size (BIGL, HSA null model) (Compound 51 0.1 μM, Decitabine 0.0015 μM, Venetoclax 0.0001 μM): 0.03 | Effect size (BIGL, HSA null model) (Compound 51 0.1 μM, Decitabine 0.015 μM, Venetoclax 0.001 μM): 0.09 | Effect size (BIGL, HSA null model) (Compound 51 0.1 μM, Decitabine 0.15 μM, Venetoclax 0.002 μM): −0.06 | Effect size (BIGL, HSA null model) (Compound 51 0.1 μM, Decitabine 1.5 μM, Venetoclax 0.02 μM): −0.01 | Effect size (BIGL, HSA null model) (Compound 51 0.1 μM, Decitabine 3 μM, Venetoclax 0.2 μM): 0 | Effect size (BIGL, HSA null model) (Compound 51 0.5 μM, Decitabine 0.0015 μM, Venetoclax 0.0001 μM): 0.03 | Effect size (BIGL, HSA null model) (Compound 51 0.5 μM, Decitabine 0.015 μM, Venetoclax 0.001 μM): 0.12 | Effect size (BIGL, HSA null model) (Compound 51 0.5 μM, Decitabine 0.15 μM, Venetoclax 0.002 μM): 0.01 | Effect size (BIGL, HSA null model) (Compound 51 0.5 μM, Decitabine 1.5 μM, Venetoclax 0.02 μM): −0.01 | Effect size (BIGL, HSA null model) (Compound 51 0.5 μM, Decitabine 3 μM, Venetoclax 0.2 μM): 0 | Effect size (BIGL, HSA null model) (Compound 51 1 μM, Decitabine 0.0015 μM, Venetoclax 0.0001 μM): 0.02 | Effect size (BIGL, HSA null model) (Compound 51 1 μM, Decitabine 0.015 μM, Venetoclax 0.001 μM): 0.11 | Effect size (BIGL, HSA null model) (Compound 51 1 μM, Decitabine 0.15 μM, Venetoclax 0.002 μM): 0 | Effect size (BIGL, HSA null model) (Compound 51 1 μM, Decitabine 1.5 μM, Venetoclax 0.02 μM): 0 | Effect size (BIGL, HSA null model) (Compound 51 1 μM, Decitabine 3 μM, Venetoclax 0.2 μM): 0.03 | combination effect on proliferation (in words) (Compound 51 with Decitabine in the presence of Venetoclax, OCI-AML3 (NPM1c), 6-day CellTiter-Glo): not antagonistically cytotoxic
